The results in this text go back to ChEMBL document CHEMBL1127311, “Derivatives of 4-(2'-methoxyphenyl)-1-[2'-(N-2"-pyridinyl-p-iodobenzamido)ethyl]pipera zine (p-MPPI) as 5-HT1A ligands” (J Med Chem, 1994).

By IC50 is commonly meant the point on the concentration scale where inhibition reaches its midpoint. Read a high IC50 as weaker potency in that assay. For orientation: Kd means the equilibrium constant for the complex coming apart. One may read the Ki as the equilibrium dissociation constant of an inhibitor or competing ligand from its target.

One experiment concerns the target T1, 5-hydroxytryptamine receptor 1A (Rattus norvegicus, UniProt P19327).
T1 sequence (P19327 whole entry): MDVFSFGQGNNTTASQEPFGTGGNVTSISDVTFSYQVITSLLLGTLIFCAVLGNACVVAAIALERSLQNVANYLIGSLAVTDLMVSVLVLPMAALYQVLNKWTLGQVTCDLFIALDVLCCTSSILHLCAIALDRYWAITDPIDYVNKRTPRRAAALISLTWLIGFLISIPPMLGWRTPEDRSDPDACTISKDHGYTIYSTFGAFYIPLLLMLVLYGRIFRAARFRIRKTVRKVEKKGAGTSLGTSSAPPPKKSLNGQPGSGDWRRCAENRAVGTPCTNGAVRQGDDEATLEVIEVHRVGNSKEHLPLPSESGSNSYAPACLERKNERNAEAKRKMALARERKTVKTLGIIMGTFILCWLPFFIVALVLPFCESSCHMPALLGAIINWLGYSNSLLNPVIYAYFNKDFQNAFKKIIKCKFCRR
The experiment can be described thus: biochemical.
Description: In vitro binding affinity to 5-hydroxytryptamine 1A receptor using [125I](R)-(+)-trans-8-OH-PIPAT as radioligand in rat hippocampal homogenate
`COc1ccccc1N1CCN(C[C@@H](C(=O)NC(C)(C)C)c2ccccc2)CC1` returned an IC50 of 15 nM.

The next experiment is filed under the species Rattus norvegicus.
Test: not given
In the case of `COc1ccccc1N1CCN(CCN(C(=O)c2ccc(F)cc2)c2ccccn2)CC1`, the Kd was determined as 0.3 nM.

In the case of `COc1ccccc1N1CCN(CCN(C(=O)c2ccc(I)cc2)c2ccccn2)CC1`, the affinity, expressed as Kd, was 0.3 nM.

Another experiment concerns the target T1, 5-hydroxytryptamine receptor 1A. The experiment can be described thus: biochemical. This is another data set of the same source.
Description: In vitro binding affinity to 5-hydroxytryptamine 1A receptor in rat hippocampal homogenate by [125I](R)-(+)-trans-8-OH-PIPAT displacement.
`COc1ccccc1N1CCN(CCN(C(=O)c2cccc(C)c2)c2ccccn2)CC1` yielded a Ki of 16.1 nM.

Turning to `CCCCCCc1ccc(C(=O)N(CCN2CCN(c3ccccc3OC)CC2)c2ccccn2)cc1`, affinity was put at a Ki of 57.9 nM.

The compound `COc1ccccc1N1CCN(CCN(C(=O)c2ccc(N)c(I)c2)c2ccccn2)CC1` returned a Ki of 17.7 nM.

`COc1ccccc1N1CCN(CCN(C(=O)c2ccc(C)cc2)c2ccccn2)CC1` registered a Ki of 2.2 nM.

Compound `CCCCCc1ccc(C(=O)N(CCN2CCN(c3ccccc3OC)CC2)c2ccccn2)cc1` returned a Ki of 75 nM.

`CCCCc1ccc(C(=O)N(CCN2CCN(c3ccccc3OC)CC2)c2ccccn2)cc1` returned a Ki of 13.2 nM.

In turn, `CCCCCCCc1ccc(C(=O)N(CCN2CCN(c3ccccc3OC)CC2)c2ccccn2)cc1` returned a Ki of 81.8 nM.

Compound `CCCc1ccc(C(=O)N(CCN2CCN(c3ccccc3OC)CC2)c2ccccn2)cc1` came in with a Ki of 10.3 nM.

The compound `COc1ccccc1N1CCN(CCN(C(=O)c2ccc(CCl)cc2)c2ccccn2)CC1` returned a Ki of 3.5 nM.

Compound `COc1ccccc1N1CCN(CCN(C(=O)c2ccc(N)cc2)c2ccccn2)CC1` registered a Ki of 10 nM.

Regarding `COc1ccccc1N1CCN(CCN(C(=O)c2ccc(NC(=O)CCl)cc2)c2ccccn2)CC1`, the Ki turned out to be 22 nM.

`COc1ccccc1N1CCN(CCN(C(=O)c2ccc(F)cc2)c2ccccn2)CC1` registered a Ki of 3.2 nM.

Take `COc1ccccc1N1CCN(CCN(C(=O)c2ccc(C(C)(C)C)cc2)c2ccccn2)CC1`: the Ki came to 27 nM.

`CCc1ccc(C(=O)N(CCN2CCN(c3ccccc3OC)CC2)c2ccccn2)cc1` returned a Ki of 9.3 nM.

Regarding `COc1ccccc1N1CCN(CCN(C(=O)c2ccc(N=[N+]=[N-])c(I)c2)c2ccccn2)CC1`, the Ki was determined as 25 nM.

Take `COc1ccccc1N1CCN(CCN(C(=O)c2ccccc2)c2ccccn2)CC1`: the Ki worked out at 2.5 nM.
